Bridge positions count the residues as written; N and C are the ends. Ends that are not written are not given here.
What was measured:
[1] = test system: lung carcinoma cell line: A549; experiment: Living A549 cells by AlamarBlue test; format: cell-based, homo sapiens; details: 100 μg/ml, after 72 h, FIG. 4
Experimental: Cell line: lung carcinoma cell line: A549 (ATCC No. CCL-185™), organism: homo sapiens, literature: Giard D J, et al. J. Natl. Cancer Inst. 51: 1417-1423, 1973.
After adherence of the cells (incubation 24 h, cell amount 5×10^3 cells per batch), the cells were treated for 72 h with MCS and/or peptides (CZT, DZT) and afterwards the percentage of living cells was measured by AlamarBlue test.
AlamarBlue™ cell growth test was carried out according to the specifications of the manufacturer (Serotec, Oxford, England, www.serotc.com).

[2] = test system: Colon cancer cell line: Colo 205; experiment: Living Colo 205 cells by MTT test; format: cell-based, homo sapiens; details: 24 h
Experimental: After adherence of the cells (incubation 24 h, cell amount 1×10^4 cells per batch), the cells were treated for 24 h with MCS and/or peptides (Hellethionin C (CZT), Hellethionin D (DZT)) and afterwards the percentage of living cells was measured by MTT test.
The MTT cell growth test was carried out according to Alley et. al. (M. C. Alley et al., Proc. Am. Assoc. Cancer Res., 27:389, 1986; M. C. Alley et al., Cancer Res. 48:589-601, 1988). The finale concentration of 3-(4,5-dimethylthiazol-2-yl)-2,5-diphenyltetrazoliumbromide was 0.4 mg/ml.

[3] = test system: murine peritoneal macrophages; experiment: Effect on murine peritoneal macrophages (NO, TNF-α, IL-10, survival); format: cell-based, CD1 mice; details: 24 hours; for IL-10 / TNF-α: control 0; for NO: control 1.1; for Survival rate: control 100
Experimental: Murine peritoneal macrophages extracted from CD1 mice were used. A peritoneal flushing was carried out using 5 ml of PBS. After three washing processes with RPMI 1640 the cells were put into a 96-well culturing plate with a concentration of 1×10^6 cells/ml (200 μl/well) in 10% FCS-RPMI 1640 medium and kept for 24 hours. After the incubation the cells were washed three times with RPMI 1640 and resuspended in 10% FCS-RPMI 1640 medium (100 μl/well) in the absence (non stimulated) or in the presence (stimulated) of different stimulants. After 24 hours of incubation NO, IL-10 and TNF-α were measured in the culture supernatant.

[4] = test system: primary human immune cells; experiment: Effect on the cytokine production of primary human immune cells (Quantikine ELISA in lymphocyte cultures); format: cell-based; details: for TGF-β2 concentration: control 9; for IL-4 concentration: control 34; for IL-3 concentration: control 41; for IL-2R concentration: control 44; for IL-10 concentration: control 69; for IL-6R concentration: control 171
Experimental: The effect of the peptide HT-A on the cytokine production of primary human immune cells was determined through the measurement of the concentration of cytokines in lymphocyte cultures obtained from human blood. Dosages of 4-200 μg/ml of the hellethionins were used, which were obtained by adding the calculated amounts in the form of a stock solution. The concentration of individual cytokines in the treated and control samples is determined by means of the commercially available “Quantikine” ELISA plates from R&D Biosystems, Minneapolis, USA. The results were compared with control samples, i.e. with the lymphocyte culture without addition of the peptide.
In the case of the lymphocyte cultures (4 million cells per ml) treated with 4 μg and 200 μg of the peptide HT-A, respectively, the following cytokine (and cytokine receptor) concentrations [pg/ml] were obtained in comparison with the control sample (without peptide): […]

[5] = test system: human lymphocytes; details: Büssing A. et al. 1999; cited from earlier work
[6] = mammals; cited from earlier work

Substance: KSCCRNTLARNCYNACRFTGGSQPTCGILCDCIHVTTTTCPSSHPS (disulfide 3-40, 4-32, 12-30, 16-26) [HT-D, hellethionin-D]
- living cells (A549) [1]: about 50%
- Living Colo 205 cells ([2]; 50 μg/ml): 92.15%
- Living Colo 205 cells ([2]; 100 μg/ml, listed as DZT): about 50%
- Living Colo 205 cells ([2]; 100 μg/ml, listed as DZT peptide): 58.66%
- IL-10 ([3]; 5 μg/ml): 0 pg/mL
- TNF-α ([3]; 5 μg/ml): 18 pg/mL
- NO ([3]; 5 μg/ml): 0.8 µM
- Survival rate ([3]; 5 μg/ml): 87.6%
- IL-10 ([3]; 100 μg/ml): 0 pg/mL
- TNF-α ([3]; 100 μg/ml): 0 pg/mL
- NO ([3]; 100 μg/ml): 1.3 µM
- Survival rate ([3]; 100 μg/ml): 42.8%

Substance: KSCCRNTLGRNCYNACRLTGTSQATCATLCDCIHVTATTCRPPYPS (disulfide 3-40, 4-32, 12-30, 16-26) [HT-C, hellethionin-C]
- Survival rate ([3]; 5 μg/ml): 80.3%
- Survival rate ([3]; 100 μg/ml): 10.7%

Substance: hellethionin-A [HT-A]
- TGF-β2 concentration ([4]; 4 μg/ml peptide): 105 pg/mL
- IL-4 concentration ([4]; 4 μg/ml peptide): 19 pg/mL
- IL-3 concentration ([4]; 4 μg/ml peptide): 26 pg/mL
- IL-2R concentration ([4]; 4 μg/ml peptide): 30 pg/mL
- IL-10 concentration ([4]; 4 μg/ml peptide): 288 pg/mL
- IL-6R concentration ([4]; 4 μg/ml peptide): 100 pg/mL
- TGF-β2 concentration ([4]; 200 μg/ml peptide): 45 pg/mL
- IL-4 concentration ([4]; 200 μg/ml peptide): 12 pg/mL
- IL-3 concentration ([4]; 200 μg/ml peptide): 8 pg/mL
- IL-2R concentration ([4]; 200 μg/ml peptide): 67 pg/mL
- IL-10 concentration ([4]; 200 μg/ml peptide): 12 pg/mL
- IL-6R concentration ([4]; 200 μg/ml peptide): 65 pg/mL
- expression of pro-inflammatory cytokines IL-2, IL-3, IL-4 and γ-IFN ([4]; 4 and 200 μg/ml): inhibiting the expression
- influence on production of IL-6 or TNF-α and expression of the IL-1 receptor ([4]; 4 and 200 μg/ml): no significant influence
- effect on cytokines acting suppressively, IL-10 and TGF-β2 ([4]; more intense at 4 μg/ml than at 200 μg/ml): shows a stimulation

Substance: purothionins
- toxic effect on human lymphocytes [5]: do not exert a toxic effect

Substance: viscotoxins
- toxic effect on human lymphocytes [5]: toxic
- LD50 [6]: 0.1 to 1 mg/kg

From US7750114B2, “Peptides having a high cysteine content” (priority 2002, dated 2010)
